How the values were obtained:
[1] = tested on: PMNs; experiment: Chemotaxis assay, PMNs (transwell); format: cell-based; settings: Homo sapiens
Procedure: (§1) PMNs and monocytes migration was assessed using 1 or 3-μm pore size transwells (Bio-Coat Becton-Dickinson), while lymphocytes by using 5-μm pore size transwells.
(§2) Cells were in RPMI1640, containing 10% heat-inactivated Fetal Calf Serum (FCS) and 20 mM HEPES, pH 7.3, at 2×10^6/ml. 100 μl of cell suspension were added to the top well, and 600 μl of medium, containing chemoaftractants and test compound, were added to the bottom well. Migration was evaluated after 2 h for PMNs and monocytes and after 4 h for lymphocytes. fMLP 10 nM (PMNs and monocytes) and MIP-3β 100 nM (lymphocytes) were utilized as chemoattractants. After fixation with 1.5% glutaraldehyde, migrated cells were counted by fluorescence-activated cell sorting using polystyrene beads (Polyscience) as an internal standard (Campbell J. J. et al. J. Cell. Biol. 134, 255-266, 1996; Laudanna C. et al. J. Biol. Chem. 273, 46, 30306-30315, 1998).
(§3) Results are expressed as percentage of inhibition over control (=100%), and are the mean of three experiments.

[2] = tested on: Monocytes; experiment: Chemotaxis assay, monocytes (transwell); format: cell-based; settings: Homo sapiens, Monocyte
Procedure: as §1, §2, §3

[3] = tested on: PMNs; experiment: Chemoattractant-induced rapid adhesion of PMNs to fibrinogen (CR3 ligand); format: cell-based; settings: Homo sapiens
Procedure: (§4) Adhesion was performed on purified integrin ligands and was evaluated as reported in Constantin G. et al., Immunity, 16, 759-769, 2000. Briefly, primary naïve lymphocytes, polymorphonuclear neutrophils (PMNs) or monocytes were isolated form healthy donors. In other experiments, murine autoreactive T cells were obtained from SJL mice immunized with PLP139-151 as described (Piccio L. et al., J. Immunol. 168, 1940-1949, 2002). Cells were resuspended at 4×10^6/ml in PBS, CaCl2, MgCl2 1 mM, 10% FCS, pH 7.2. Adhesion assays were performed on eighteen well glass slides coated overnight at 4° C. with ligands for CR3 (fibrinogen) or LFA-1 (ICAM-1). 20 μl of cell suspension were added to the wells and stimulated at 37° C. with 5 μl of agonists prior to washing, fixation and computer-assisted enumeration of bound cells.
(§5) Integrin activation was measured as induction of rapid adhesion triggered by the classical chemoattractant N-formyl-L-methionyl-L-leucyl-phenylalanine (fMLP) (100 nM) or by the CC chemokine MIP3β (CCL19, 1 μM). PMNs and monocytes were triggered to adhere to fibrinogen (CR3 ligand); naive human lymphocytes or murine encephalitogenic T cells were triggered to adhere to ICAM-1 (LFA-1 ligand). Triggered adhesion was evaluated after 2 min of stimulation under static conditions. The cells were pretreated at 37° C. for 30-60 min with the indicated concentrations of the test compound. Results are expressed as percentage of inhibition over control (=100%) and are the mean of three experiments in the case of human leukocytes. Results are expressed as mean counts and are the mean counts±S.D of three experiments and are the mean of three experiments in the case of murine encephalitogenic lymphocytes.
(§6) Integrin activation was measured as induction of rapid adhesion triggered by the “classical” chemoattractant fMLP (100 nM) or by the CC chemokine MIP3β(CCL19, 1 μM). PMNs were triggered to adhere to fibrinogen (CR3 ligand); lymphocytes were triggered to adhere to ICAM-1 (LFA-1 ligand).

[4] = tested on: Lymphocytes; experiment: Chemokine-induced rapid adhesion of lymphocytes to ICAM-1 (LFA-1 ligand); format: cell-based; settings: Homo sapiens, Lymphocyte
Procedure: as §4, §5, §6

[5] = tested on: endotoxic shock induced by LPS in C57BI/6 male mice; experiment: Septic shock animal model (LPS-induced endotoxic shock), survival; format: in vivo
Source text: The model is represented by endotoxic shock, the most common type of septic shock in humans.
The septic shock has been induced in 8-10 week-old C57BI/6 male mice (Harlan-Nossan laboratories) by high concentrations of LPS (lipopolysaccharide), that is considered a reliable experimental model for human endotoxic shock (Garrido et al., Acta Chir. Bras., 19, 2004).
LPS from Escherichia coli 0127:B7 (Sigma) was solubilized in PBS containing 2% fetal calf serum (FCS) as a source of “LPS binding protein”, a molecule that increases the endotoxin action. Mice received 37.5 mg/kg LPS/endotoxin intraperitoneally (i.p.). Animals (ten/group) were monitored at least four times daily and survival of animals was determined in control and treated mice (Lowell C. A. et al., PNAS 95, 7580, 1998).
In the preventive study (FIG. 3), control mice received only vehicle, while treated mice received 70 mg/kg i.p. of Compound of Example 1 two hours before the administration of LPS.
In the therapeutic study (FIG. 4), control mice received only vehicle, while treated mice received both 70 mg/kg i.p. of Compound of Example 1 (3 hours after LPS administration) and 10 mg/kg i.v. (intravenously) (12 hours after LPS administration).

COC(=O)c1[nH]c2cc(OC)c(OC)cc2c1-c1ccc(OC)cc1 [Example 1]
inhibition at 2.5 µM ([1]; [cpd] 2.5 μM, read-out: Inhibition of Chemotaxis (%) PMNs (fMLP)): 14.6% | inhibition at 5 µM ([1]; [cpd] 5 μM, read-out: Inhibition of Chemotaxis (%) PMNs (fMLP) (converted)): 28.2% | inhibition at 10 µM ([1]; [cpd] 10 μM, read-out: Inhibition of Chemotaxis (%) PMNs (fMLP) (converted)): 34% | inhibition at 25 µM ([1]; [cpd] 25 μM, read-out: Inhibition of Chemotaxis (%) PMNs (fMLP) (converted)): 40.6% | inhibition at 50 µM ([1]; [cpd] 50 μM, read-out: Inhibition of Chemotaxis (%) PMNs (fMLP)): 46.4% | inhibition at 100 µM ([1]; [cpd] 100 μM, read-out: Inhibition of Chemotaxis (%) PMNs (fMLP) (converted)): 62.6% | inhibition at 2.5 µM ([2]; [cpd] 2.5 μM, read-out: Inhibition of Chemotaxis (%) Monocytes (fMLP)): 10.5% | inhibition at 5 µM ([2]; [cpd] 5 μM, read-out: Inhibition of Chemotaxis (%) Monocytes (fMLP) (converted)): 15.5% | inhibition at 10 µM ([2]; [cpd] 10 μM, read-out: Inhibition of Chemotaxis (%) Monocytes (fMLP) (converted)): 18.3% | inhibition at 25 µM ([2]; [cpd] 25 μM, read-out: Inhibition of Chemotaxis (%) Monocytes (fMLP) (converted)): 47.4% | inhibition at 50 µM ([2]; [cpd] 50 μM, read-out: Inhibition of Chemotaxis (%) Monocytes (fMLP) (converted)): 46.3% | inhibition at 100 µM ([2]; [cpd] 100 μM, read-out: Inhibition of Chemotaxis (%) Monocytes (fMLP) (converted)): 75.5% | inhibition at 2.5 µM ([3]; [cpd] 2.5 μM, read-out: Inhibition of Adhesion (%) PMNs (fMLP)): 9.4% | inhibition at 5 µM ([3]; [cpd] 5 μM, read-out: Inhibition of Adhesion (%) PMNs (fMLP) (converted)): 56.1% | inhibition at 10 µM ([3]; [cpd] 10 μM, read-out: Inhibition of Adhesion (%) PMNs (fMLP) (converted)): 66.7% | inhibition at 25 µM ([3]; [cpd] 25 μM, read-out: Inhibition of Adhesion (%) PMNs (fMLP) (converted)): 72.9% | inhibition at 50 µM ([3]; [cpd] 50 μM, read-out: Inhibition of Adhesion (%) PMNs (fMLP) (converted)): 79% | inhibition at 100 µM ([3]; [cpd] 100 μM, read-out: Inhibition of Adhesion (%) PMNs (fMLP) (converted)): 94.2% | inhibition at 2.5 µM ([4]; [cpd] 2.5 μM, read-out: Inhibition of Adhesion (%) Lymphocytes (MIP3-β)): 32.4% | inhibition at 5 µM ([4]; [cpd] 5 μM, read-out: Inhibition of Adhesion (%) Lymphocytes (MIP3-β) (converted)): 41.2% | inhibition at 10 µM ([4]; [cpd] 10 μM, read-out: Inhibition of Adhesion (%) Lymphocytes (MIP3-β) (converted)): 42.6% | inhibition at 25 µM ([4]; [cpd] 25 μM, read-out: Inhibition of Adhesion (%) Lymphocytes (MIP3-β) (converted)): 60.8% | inhibition at 50 µM ([4]; [cpd] 50 μM, read-out: Inhibition of Adhesion (%) Lymphocytes (MIP3-β) (converted)): 61.8% | inhibition at 100 µM ([4]; [cpd] 100 μM, read-out: Inhibition of Adhesion (%) Lymphocytes (MIP3-β) (converted)): 98.6% | survival, therapeutic study ([5]; 70 mg/kg i.p. 3 hours and 10 mg/kg i.v. 12 hours after LPS, at 52 hours, control survival 0%): 40% | mortality, preventive study ([5]; 70 mg/kg i.p. two hours before LPS, at 90 hours, control mortality 100%): 20% | survival, preventive study ([5]; 70 mg/kg i.p. two hours before LPS, at 90 hours, control survival 0%): 80%
